The values that follow come from patent publication US20090069320A1, “Substituted 4-Amino-Quinazoline Compounds with Metabotropic Glutamate Receptor Regulating Activity and Uses Thereof” (Gruenenthal GmbH, priority 2006, published 2009).

The experiment addresses T1, mGluR5 receptor (Sus scrofa, UniProt I3LUI7).
T1 construct: 450 μg of protein from brain homogenate with 5 nM ^3[H]-MPEP; from tissue; host or cells: pig brain halves without medulla, cerebellum and pons
As to the kind of experiment: [3H]-MPEP mGluR5 receptor binding assay (pig brain homogenate). Conditions: 5 nM [3H]-MPEP; for inhibition at 10 µM / % Inhibition of mGluR5 Receptor (pig) [^3H]-MPEP Bond at 10 μM: 10 μM compound; for inhibition at 10 µM: read-out: % Inhibition of mGluR5 Receptor (pig) [^3H]-MPEP Bond at 10 μM. Summed up: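 Compounds at 10 μM competed with 5 nM [3H]-MPEP for binding to pig brain membranes (450 μg protein) for 60 min at room temperature in pH 8.0 Hepes buffer. Bound radioactivity was collected on glass-fibre filters and read by β-counting, with 10 μM unlabelled MPEP giving non-specific binding.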

T1 sequence (I3LUI7 19-1212): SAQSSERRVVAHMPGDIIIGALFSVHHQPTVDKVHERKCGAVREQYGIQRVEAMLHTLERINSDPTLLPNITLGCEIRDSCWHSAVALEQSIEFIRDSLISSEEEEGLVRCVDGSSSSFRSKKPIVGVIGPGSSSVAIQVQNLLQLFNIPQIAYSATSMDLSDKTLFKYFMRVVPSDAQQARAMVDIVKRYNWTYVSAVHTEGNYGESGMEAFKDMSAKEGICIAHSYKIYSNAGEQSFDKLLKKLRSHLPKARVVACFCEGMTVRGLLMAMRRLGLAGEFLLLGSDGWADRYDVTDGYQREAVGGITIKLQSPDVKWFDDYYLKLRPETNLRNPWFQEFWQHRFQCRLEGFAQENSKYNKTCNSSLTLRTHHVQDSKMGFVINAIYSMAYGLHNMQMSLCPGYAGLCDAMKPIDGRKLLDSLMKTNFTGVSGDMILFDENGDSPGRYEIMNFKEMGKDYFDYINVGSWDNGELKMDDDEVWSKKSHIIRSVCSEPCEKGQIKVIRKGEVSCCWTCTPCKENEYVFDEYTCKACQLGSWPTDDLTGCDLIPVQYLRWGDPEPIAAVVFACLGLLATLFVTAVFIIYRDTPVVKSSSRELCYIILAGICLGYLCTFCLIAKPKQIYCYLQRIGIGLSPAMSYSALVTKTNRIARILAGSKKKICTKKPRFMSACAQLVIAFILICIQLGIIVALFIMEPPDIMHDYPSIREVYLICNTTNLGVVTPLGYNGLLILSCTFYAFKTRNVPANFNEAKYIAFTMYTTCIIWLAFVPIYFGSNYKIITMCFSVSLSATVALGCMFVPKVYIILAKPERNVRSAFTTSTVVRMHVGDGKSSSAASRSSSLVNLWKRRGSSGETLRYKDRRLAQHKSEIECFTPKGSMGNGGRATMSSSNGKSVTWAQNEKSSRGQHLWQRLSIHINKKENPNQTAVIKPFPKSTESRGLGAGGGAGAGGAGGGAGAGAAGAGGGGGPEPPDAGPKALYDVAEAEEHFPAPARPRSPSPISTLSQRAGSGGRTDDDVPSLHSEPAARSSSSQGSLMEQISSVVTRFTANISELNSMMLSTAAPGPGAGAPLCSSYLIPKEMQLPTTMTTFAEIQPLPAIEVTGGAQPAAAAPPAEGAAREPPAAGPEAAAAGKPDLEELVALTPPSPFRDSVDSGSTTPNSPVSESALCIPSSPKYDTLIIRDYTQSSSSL

As a reminder, the inhibition is the share of the control response that was lost under treatment. On to `Cc1nc(C(=O)N(Cc2cc(-c3ccc4ncnc(NC5CC5)c4c3)ccc2F)C2CC2)cs1` [Example 605, N-cyclopropyl-N-(5-(4-(cyclopropylamino)quinazolin-6-yl)-2-fluorobenzyl)-2-methylthiazole-4-carboxamide], for which the inhibition at 10 µM is 94%. Still for that read-out and setting: to `Cc1nc(NC2CC2)c2cc(-c3ccc(F)c(CN(C(=O)c4ccncc4)C4CC4)c3)ccc2n1` [Example 608, N-cyclopropyl-N-(5-(4-(cyclopropylamino)-2-methylquinazolin-6-yl)-2-fluorobenzyl)isonicotinamide] belongs 36%; to `Cc1nc(C(=O)N(Cc2cccc(-c3ccc4ncnc(NCCc5ccccc5)c4c3)c2)C2CC2)cs1` [Example 609, N-cyclopropyl-2-methyl-N-(3-(4-(phenethylamino)quinazolin-6-yl)benzyl)thiazole-4-carboxamide], 30%; to `O=C(c1ccc(F)cc1F)N(Cc1cccc(-c2cc(F)c3ncnc(NC4CC4)c3c2)c1)C1CC1` [Example 619, N-cyclopropyl-N-(3-(4-(cyclopropylamino)-8-fluoroquinazolin-6-yl)benzyl)-2,4-difluorobenzamide], 98%. The same measure, in the same setting: the value for `Cc1nc(NC2CC2)c2cc(-c3ccc(F)c(CN(C(=O)c4csc(C)n4)C4CC4)c3)ccc2n1` [Example 624, N-cyclopropyl-N-(5-(4-(cyclopropylamino)-2-methylquinazolin-6-yl)-2-fluorobenzyl)-2-methylthiazole-4-carboxamide] was 75%; that for `Cc1nc(NC2CC2)c2cc(-c3ccc(F)c(CN(C(=O)C4CCCCC4)C4CC4)c3)ccc2n1` [Example 639, N-cyclopropyl-N-(5-(4-(cyclopropylamino)-2-methylquinazolin-6-yl)-2-fluorobenzyl)cyclohexane carboxamide] was 46%; that for `Cc1nc(NC2CC2)c2cc(-c3ccc(F)c(CN(C(=O)Cc4ccccc4)C4CC4)c3)ccc2n1` [Example 644, N-cyclopropyl-N-(5-(4-(cyclopropylamino)-2-methylquinazolin-6-yl)-2-fluorobenzyl)-2-phenylacetamide] was 85%.

Consider `CC(C)(C)C(=O)N(Cc1cc(-c2ccc3ncnc(NC4CC4)c3c2)ccc1F)C1CC1` [Example 645, N-cyclopropyl-N-(5-(4-(cyclopropylamino)quinazolin-6-yl)-2-fluorobenzyl)pivalamide], for which the inhibition at 10 µM was 90%. As for `Cc1cc2ncnc(NC3CC3)c2cc1-c1cccc(CN(C(=O)c2cccc(F)c2)C2CC2)c1` [Example 652, N-cyclopropyl-N-(3-(4-(cyclopropylamino)-7-methylquinazolin-6-yl)benzyl)-3-fluorobenzamide], the inhibition at 10 µM was found to be 93%. The same measure, in the same setting: the value for `Cc1cc2ncnc(NC3CC3)c2cc1-c1cccc(CN(C(=O)C2CCCCC2)C2CC2)c1` [Example 653, N-cyclopropyl-N-(3-(4-(cyclopropylamino)-7-methylquinazolin-6-yl)benzyl)cyclohexane carboxamide] was 66%; that for `CCCCC(=O)N(Cc1cccc(-c2cc(F)c3ncnc(NC4CC4)c3c2)c1)C1CC1` [Example 654, N-cyclopropyl-N-(3-(4-(cyclopropylamino)-8-fluoroquinazolin-6-yl)benzyl)pentanamide] was 82%; that for `COc1ccc(CNc2ncnc3ccc(-c4cccc(CN(C(C)=O)C5CC5)c4)cc23)c(OC)c1` [Example 657, N-cyclopropyl-N-(3-(4-(2,4-dimethoxybenzylamino)quinazolin-6-yl)benzyl)acetamide] was 36%.

With `COc1ccc(S(=O)(=O)N(Cc2cccc(-c3cc4c(NC5CC5)ncnc4cc3C)c2)C2CC2)cc1` [Example 659, N-cyclopropyl-N-(3-(4-(cyclopropylamino)-7-methylquinazolin-6-yl)benzyl)-4-methoxybenzole sulfonamide], the “% Inhibition of mGluR5 Receptor (pig) [^3H]-MPEP Bond at 10 μM” value (“% Inhibition of mGluR5 Receptor (pig)” for short) is on record as 86%. Take `Cc1cc2ncnc(NC3CC3)c2cc1-c1cccc(CN(C(=O)c2ccc(F)cc2F)C2CC2)c1` [Example 660, N-cyclopropyl-N-(3-(4-(cyclopropylamino)-7-methylquinazolin-6-yl)benzyl)-2,4-difluorobenzamide]: the inhibition at 10 µM came to 94%. Consider `Cc1cc2ncnc(NC3CC3)c2cc1-c1cccc(CN(C(=O)Cc2ccccc2)C2CC2)c1` [Example 661, N-cyclopropyl-N-(3-(4-(cyclopropylamino)-7-methylquinazolin-6-yl)benzyl)-2-phenylacetamide], for which the inhibition at 10 µM worked out at 89%. Same read-out and setting: the value for `O=C(C1CCCCC1)N(Cc1cccc(-c2cc(F)c3ncnc(NC4CC4)c3c2)c1)C1CC1` [Example 662, N-cyclopropyl-N-(3-(4-(cyclopropylamino)-8-fluoroquinazolin-6-yl)benzyl)cyclohexane carboxamide] was 54%; that for `Cc1nc(NC2CC2)c2cc(-c3cccc(CN(C(=O)c4ccccc4C(F)(F)F)C4CC4)c3)ccc2n1` [Example 666, N-cyclopropyl-N-(3-(4-(cyclopropylamino)-2-methylquinazolin-6-yl)benzyl)-2-(trifluoromethyl)benzamide] was 43%. In the case of `Cc1cc2ncnc(NC3CC3)c2cc1-c1cccc(CN(C2CC2)S(=O)(=O)c2ccc(Cl)cc2Cl)c1` [Example 667, 2,4-dichloro-N-cyclopropyl-N-(3-(4-(cyclopropylamino)-7-methylquinazolin-6-yl)benzyl)benzole sulfonamide], the “% Inhibition of mGluR5 Receptor (pig)” value was 40%. Turning to `Cc1cc2ncnc(NC3CC3)c2cc1-c1cccc(CN(C(=O)c2ccc(C(F)(F)F)cc2F)C2CC2)c1` [Example 668, N-cyclopropyl-N-(3-(4-(cyclopropylamino)-7-methylquinazolin-6-yl)benzyl)-2-fluoro-4-(trifluoromethyl)benzamide], the inhibition at 10 µM was found to be 88%. Still for that read-out and setting: the value for `Cc1cc2ncnc(NC3CC3)c2cc1-c1cccc(CN(C(=O)CCc2ccccc2)C2CC2)c1` [Example 669, N-cyclopropyl-N-(3-(4-(cyclopropylamino)-7-methylquinazolin-6-yl)benzyl)-3-phenylpropanamide] was 77%; that for `O=C(Cc1ccccc1)N(Cc1cccc(-c2cc(F)c3ncnc(NC4CC4)c3c2)c1)C1CC1` [Example 670, N-cyclopropyl-N-(3-(4-(cyclopropylamino)-8-fluoroquinazolin-6-yl)benzyl)-2-phenylacetamide] was 79%. Same read-out and setting: to `CNc1ncnc2ccc(-c3cccc(CN(C(=O)c4ccno4)c4ccccc4F)c3)cc12` [Example 671, N-(2-fluorophenyl)-N-(3-(4-(methylamino)quinazolin-6-yl)benzyl)isoxazole-5-carboxamide] belongs 40%. Consider `Cc1cc2ncnc(NC3CC3)c2cc1-c1cccc(CN(C2CC2)S(=O)(=O)c2c(F)c(F)c(F)c(F)c2F)c1` [Example 675, N-cyclopropyl-N-(3-(4-(cyclopropylamino)-7-methylquinazolin-6-yl)benzyl)-2,3,4,5,6-pentafluorobenzole sulfonamide], for which the “% Inhibition of mGluR5 Receptor (pig)” value stood at 48%. As for `Cc1cc2ncnc(NC3CC3)c2cc1-c1cccc(CN(C(=O)c2cccc(C(F)(F)F)c2)C2CC2)c1` [Example 676, N-cyclopropyl-N-(3-(4-(cyclopropylamino)-7-methylquinazolin-6-yl)benzyl)-3-(trifluoromethyl)benzamide], the inhibition at 10 µM is 75%. On the same count and under the same terms, to `O=C(c1ccco1)N(Cc1cccc(-c2cc(F)c3ncnc(NC4CC4)c3c2)c1)C1CC1` [Example 677, N-cyclopropyl-N-(3-(4-(cyclopropylamino)-8-fluoroquinazolin-6-yl)benzyl)furan-2-carboxamide] belongs 93%. As a reminder, the IC50 is the concentration that inhibits the measured activity by half. As for `CS(=O)(=O)N(Cc1cccc(-c2cc(F)c3ncnc(NC4CC4)c3c2)c1)C1CC1` [Example 678, N-cyclopropyl-N-(3-(4-(cyclopropylamino)-8-fluoroquinazolin-6-yl)benzyl)methane sulfonamide], the IC50 (read-out: IC50 mGluR5 Receptor (pig) [^3H]-MPEP Bond) amounted to 220 nM.

`Cc1cc2ncnc(NC3CC3)c2cc1-c1cccc(CN(C2CC2)S(=O)(=O)c2cccc3cccnc23)c1` [Example 683, N-cyclopropyl-N-(3-(4-(cyclopropylamino)-7-methylquinazolin-6-yl)benzyl)quinoline-8-sulfonamide]: the inhibition at 10 µM turned out to be 31%. Turning to `Cc1cc2ncnc(NC3CC3)c2cc1-c1cccc(CN(C(=O)c2ccccc2C(F)(F)F)C2CC2)c1` [Example 684, N-cyclopropyl-N-(3-(4-(cyclopropylamino)-7-methylquinazolin-6-yl)benzyl)-2-(trifluoromethyl)benzamide], the inhibition at 10 µM came out at 96%. The same measure, in the same setting: the value for `O=C(c1cccs1)N(Cc1cccc(-c2cc(F)c3ncnc(NC4CC4)c3c2)c1)C1CC1` [Example 685, N-cyclopropyl-N-(3-(4-(cyclopropylamino)-8-fluoroquinazolin-6-yl)benzyl)thiophene-2-carboxamide] was 81%. For the compound `O=S(=O)(c1cccc(C(F)(F)F)c1)N(Cc1cccc(-c2cc(F)c3ncnc(NC4CC4)c3c2)c1)C1CC1` [Example 686, N-cyclopropyl-N-(3-(4-(cyclopropylamino)-8-fluoroquinazolin-6-yl)benzyl)-3-(trifluoromethyl)benzole sulfonamide], the “% Inhibition of mGluR5 Receptor (pig)” value is 68%. Take `CNc1ncnc2ccc(-c3cccc(CN(C(=O)c4cccc(F)c4)c4ccccc4F)c3)cc12` [Example 687, 3-fluoro-N-(2-fluorophenyl)-N-(3-(4-(methylamino)quinazolin-6-yl)benzyl)benzamide]: the inhibition at 10 µM is 60%.
